The results in this text go back to US20240325319A1, “INHIBITORS OF AMYLOID BETA OLIGOMERIZATION AND THERAPEUTIC USES THEREOF” (Northwestern University, priority 2021, published 2024).

One series deals with 5×FAD mice. As to the kind of experiment: Memory performance (novel object preference) in 5×FAD mice. It is filed as in vivo. On the procedure:
FIG. 7. […] Preliminary results obtained in 11 month old mice treated with NU-9 for 4 weeks. Memory performance was evaluated before and after treatment with vehicle or NU-9.
In a preliminary experiment using a mouse model of Alzheimer's disease, NU-9 protected against memory loss. Twelve 5×FAD mice were bred on the slow-onset background. These animals received either vehicle control or NU-9 by gavage (20 mg/kg) daily for one month. In the control group, all animals failed the memory task, showing no preference for the novel object. […] (FIG. 7).

Series [1] addresses T1, cathepsin B (Rattus norvegicus, UniProt P00787).
T1 construct: endogenous in cells
As to the kind of experiment: Cathepsin B activity in hippocampal neurons (cell-based, Magic Red). Conditions: neurons treated with NU-9 30 minutes.

The target of series [2] is cathepsin B (Homo sapiens, UniProt P07858). Briefly: Purified cathepsin B enzyme activity (Z-RR-AMC to 7-AMC). It is filed as biochemical. As to conditions: NU-9 0.0003-30 μM. The protocol: FIG. 28. A) 0.0003-30 μM NU-9 was combined with purified cathepsin B enzyme in the presence of the cathepsin B substrate Z-RR-AMC. Cathepsin B enzyme activity was measured by the rate of 7-AMC production by fluorescence. Percent change in rate with NU-9 was quantified in the graph. […] B) Mature hippocampal neurons were treated with NU-9 for 30 minutes, then Magic Red was used to monitor intracellular cathepsin L activity. Cells were treated in 3 wells.

For the next series, the target named is cathepsin L (Homo sapiens, UniProt P07711). Briefly: Purified cathepsin L enzyme activity (Z-FR-AMC to 7-AMC). It is filed as biochemical. Conditions: 0.0003-150 μM NU-9. On the procedure:
FIG. 26. A) 0.0003-150 μM NU-9 was combined with purified cathepsin L enzyme in the presence of the cathepsin L substrate Z-FR-AMC. Cathepsin L enzyme activity was measured by the rate of 7-AMC production by fluorescence. Percent change in rate was quantified in the graph. […] B) Mature hippocampal neurons were treated with NU-9 for 30 minutes, then Magic Red was used to monitor intracellular cathepsin L activity. Cells were treated in 3 wells, and 9-22 images were analyzed per condition.
No effect of 0.0003-150 μM NU-9 was observed on the cathepsin L activity as measured by the production rate of 7-AMC from Z-FR-AMC by purified cathepsin L enzyme.

Another series deals with AβOs. Briefly: Size of AβOs formed, molecular weight cutoff filters of 50 and 100 kDa. As to conditions: 50 and 100 kDa cutoff filters; conflicting results from different blots. The text has this: Another area of investigation this quarter was the effect of NU-9 on the formation of different sizes of AβOs. Evidence from animal models and human samples indicate that that some species of AβOs are more toxic than others, and specifically that higher molecular weight oligomers (>50 kDa) may include the most Aβ-relevant species^15-16. To investigate whether NU-9 reduced the formation of high-molecular weight AβOs, I carried out several experiments using molecular weight cutoff filters of 50 and 100 kDa. However, conflicting results were obtained from different blots. […] The use of sufficient bioreplicates and thorough mixing is important for these experiments. These experiments may be revisited in the future, or the question of the type of AβOs targeted could be addressed through proteomics.

The test system of a further series is AβOs bound to neurons. Briefly: AβOs bound to dendrites of hippocampal neurons treated with Aβ42 monomer (immunofluorescence, NU2/NU4). It is filed as cell-based, rat. The protocol: Neurons were pre-treated with 3 μM NU-9 for 30 min, then treated with Aβ42 monomer for 24 hr. Cells were fixed with 3.7% formaldehyde and stained for AβOs (NU4, green), tau phosphorylated at Ser396 (pSer396, red) and mounted on slides before imaging.
Cells were fixed with 3.7% formaldehyde and stained for AβOs (NU4, green), tau phosphorylated at Thr205 (pThr205, red), and nuclei (DAPI, blue) and mounted on slides before imaging.
FIG. 3. Neurons were pre-treated with 3 μM NU-9 for 30 min, then treated with Aβ42 monomer for 30 min. Cells were fixed with 3.7% formaldehyde and stained for AβOs (NU2, green), β-II tubulin (TUBB3, red), and nuclei (DAPI, blue) and mounted on slides before imaging.
FIG. 4. E18 hippocampal neurons were cultured until 21 div and pre-treated with 3, 15, or 30 μM NU-9 for 30 minutes, followed by treatment with 500 nM Aβ42 for 30 minutes. Cells were fixed with 3.7% formaldehyde and stained for AβOs (NU2, green), […] (red) and nuclei (DAPI, blue), and mounted on slides before imaging at 63×.
NU-9 reduces the number of amyloid beta oligomers bound to neurites. Primary rat hippocampal neurons in cell culture were pre-treated with NU-9 for 30 minutes and then treated with amyloid beta 1-42 (Aβ) monomer. […] To characterize the dose-response effect of NU-9 on AβO formation, cells were pretreated with increasing doses of NU-9 (3, 15, and 30 μM), and then treated with Aβ for 30 minutes.
The decrease was 81% (p=0.0005). We further characterized the effect of NU-9, to narrow down potential candidate mechanisms for this effect.

The structures appear in SMILES notation. Values joined by “and” are separate entries in the source; they are usually repeats but may differ in a detail not shown here. Equal entries are not always repeated. “Also recorded” adds a separate entry of the source.

Sequence of cathepsin L (P07711 114-333, species assumed): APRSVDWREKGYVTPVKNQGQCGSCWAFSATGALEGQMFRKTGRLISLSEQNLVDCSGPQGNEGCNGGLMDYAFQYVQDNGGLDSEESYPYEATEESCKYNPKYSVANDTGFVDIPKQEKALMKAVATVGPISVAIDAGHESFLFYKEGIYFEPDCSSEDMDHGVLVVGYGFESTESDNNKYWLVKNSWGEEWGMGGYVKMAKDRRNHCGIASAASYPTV
T1 sequence (P00787 80-126 limits assumed): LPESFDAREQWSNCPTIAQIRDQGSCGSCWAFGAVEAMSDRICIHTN
T1 sequence (P00787 129-333 limits assumed): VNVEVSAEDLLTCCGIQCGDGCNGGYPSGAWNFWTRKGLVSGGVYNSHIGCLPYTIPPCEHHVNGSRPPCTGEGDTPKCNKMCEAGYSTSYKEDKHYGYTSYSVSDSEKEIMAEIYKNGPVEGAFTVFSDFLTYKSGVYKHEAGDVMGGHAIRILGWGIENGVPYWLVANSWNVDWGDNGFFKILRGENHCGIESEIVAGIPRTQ

As to `C[C@H](Oc1cc(C(F)(F)F)cc(C(F)(F)F)c1)C1CC(=O)CC(=O)C1` [NU-9, (S)-5-(1-(3,5-bis(trifluoromethyl)phenoxy)ethyl)cyclohexane-1,3-dione], the “motor and exploratory behavior” value with 5×FAD mice (5×FAD mice treated with vehicle or NU-9 for 4 weeks) was “normal motor and exploratory behavior”. For the same compound, in the series on 5×FAD mice (5×FAD mice, 11 month old, 20 mg/kg by gavage daily for one month, preliminary, 20 mg/kg), the “protection against memory loss (preference for novel object)” value was “mitigated memory loss; also recorded: three of the four mice were protected from memory loss; also recorded: mitigates memory loss in older 5×FAD mice”. For the same compound, the “cathepsin B activity in hippocampal neurons” value on cathepsin B [1] was “not observed to alter cathepsin B activity”. In addition, on cathepsin B [2], the “cathepsin B activity (cleavage of Z-RR-AMC to 7-AMC)” value is “Minimal effect”. Moreover, the “cathepsin L activity (production rate of 7-AMC from Z-FR-AMC)” value on cathepsin L is “No effect”. In addition, in the series with AβOs, the “change in AβO size species” value is reported as “reduction in 50-100 kDa species was observed, alongside an increase in small species (<50 kDa); also recorded: reduction in most species was observed, except in small species (<50 kDa)”. Also, the “number of AβOs bound at dendrites” value with AβOs bound to neurons (3 μM NU-9 pre-treatment 30 min, then Aβ42 monomer 24-26 hr) is “significantly decreased the number of AβOs bound at dendrites; also recorded: able to reduce AβO binding in neurons treated with Aβ monomer”. For the same compound, the “AβOs bound to neurons / formation of neuron-binding AβOs” value in the series with AβOs bound to neurons (3 μM NU-9 pre-treatment 30 min, then Aβ monomer 500 nM, 30 min) is listed as “mitigated the formation of neuron-binding AβOs; also recorded: significantly reduced AβOs bound to neurons; also recorded: significantly reduced the formation of neuron binding AβOs”. Further, in the series on AβOs bound to neurons (3, 15, or 30 μM NU-9 30 min, then 500 nM Aβ42 30 min), the “dose-response of AβO suppression (visual analysis of images)” value was “reduced more extensively at higher doses of NU-9; also recorded: More extensive suppression of AβOs was observed at higher concentrations of NU-9”. Also, in the series with AβOs bound to neurons (NU-9 3 μM, 30 min prior to Aβ monomer 500 nM, 30 min or 24 h), the “reduction in AβOs at synapses compared to treatment with Aβ monomer alone” value is 81% and 55-80%. In addition, in the series with AβOs bound to neurons (NU-9 30 min pre-treatment, Aβ monomer 30 min or 24 h), the “number of AβOs bound to neurons” value is listed as “reduces the number of bound amyloid beta oligomers; also recorded: dramatically decreased the number of Aβ oligomers (AβOs) bound to neurons; also recorded: marked reduction in AβOs at synapses; also recorded: effectively reduced the number of pathological species of AβOs”.
